The results in this text go back to patent publication US20200390729A1, “OPHTHALMIC TOPICAL COMPOSITION COMPRISING DOBESILIC ACID FOR TREATING DISEASES OF THE POSTERIOR SEGMENT OF THE EYE” (LABORATORIOS SALVAT, S.A., priority 2017, published 2020).

This series deals with egg chorioallantoic membrane (CAM). Kind of series: Ocular irritation assay (HET-CAM). On the set-up: species or system White Leghorn chicken eggs. Particulars: 100 mg/ml, CAM observed for 5 minutes. An excerpt:
The HET-CAM is an alternative method to the Draize Rabbit Eye Test which mimics vascular changes in the chorioallantoic membrane, an analog for ocular conjunctiva, which can be used to determine the potential irritancy of a test substance. This method is based on that described in Hen's Egg Test-Chorioallantoic Membrane (HET-CAM) Test Method (ICCVAM-Recommended Test Method Protocol, NIH Publication No. 10-7553—Published 2010)
Fertilized white SPF (special pathogen free) White Leghorn chicken eggs were incubated at 37° C. and 60% humidity up to day 10. After determination of the viability of the embryo, a rectangular window was removed from the shell directly over the air cell and the egg membrane was carefully moistened with 2-3 ml 0.9% saline. After returning to the incubator for 30 minutes, the inner membrane was removed and the test substance was applied to the CAM membrane with a pipette. Eggs were observed continuously for 5 minutes for the appearance of lysis, hemorrhage and/or coagulation and an irritation score (IS) was determined following the ICCVAM-Recommended Test Method Protocol (NIH Publication No. 10-7553-Published 2010) guideline.

Take `CCNCC.O=S(=O)(O)c1cc(O)ccc1O` [etamsylate, diethylamine 2,5-dihydroxybenzenesulfonate]: the HET-CAM irritation characterization entry is listed as “not irritating” and the “HET-CAM lysis, haemorrhage or coagulation processes” value is reported as “did not trigger any lysis, haemorrhage or coagulation processes”.
In the case of `O=S(=O)([O-])c1cc(O)ccc1O.[K+]` [potassium dobesilate], the HET-CAM irritation characterization entry was “not irritating” and the “HET-CAM lysis, haemorrhage or coagulation processes” value is reported as “did not trigger any lysis, haemorrhage or coagulation processes”.
